Results published in EP2905024A1 (Institut Quimic De Sarriá Cets, Fundació Privada, priority 2014, dated 2015).

Columns and labels:
[1] = tested on: subgenomic HCV genotype 1b replicon, I389/NS3-3'/ LucUbiNeo-ET; assay: in vitro antiviral activity: luciferase assay in LucUbiNeo-ET HCV replicon cells; assay type: cell-based; conditions: Hepatitis C virus, 48 h, 2 days of incubation, luciferase readout, mean of duplicates
Text: (§1) To analyze the antiviral activity of the compounds, we used a stable cell line, LucUbiNeo-ET, that contains a subgenomic HCV genotype 1b replicon, I389/NS3-3'/ LucUbiNeo-ET, that express luciferase constitutively (Krieger et al, JVI 2001; 75:4614; Frese et al., JGV 2003; 84: 1253-1259). To evaluate the cellular toxicity, we use other cell line, Huh-7/Lunet (Friebe et al., JVI 2005; 79: 380-392), that originally carried a selectable luciferase HCV 1b replicon and was cured by treatment with an HCV-specific inhibitor. These cells are characterized by high permissiveness for HCV RNA replication. LucUbiNeo-ET cell line was cultured at 37°C in a humidified atmosphere with 5% CO2 in Dulbecco's modified Eagle medium (D-MEM) supplemented with high glucose concentration (4.5g/l) (Invitrogen), 10% (vol/vol) heat-inactivated fetal bovine serum (Hyclone, Cultek), 2mM L-Glutamine (Sigma-aldrich), 1mM sodium pyruvate (Sigma-aldrich), 1% MEM NEEA (Sigma-aldrich), and 0.5 mg/ml of Geneticin (G418) (Gibco, Invitrogen). Cured or Huh-7/Lunet cell line was maintained at the same conditions as described above without the addition of Geneticin.
(§2) Antiviral activity was carried out in white-clear bottom 96-well plates, and cytotoxicity assays were performed in clear 96-well plates. Cells were seeded at a density of 10^4/well in 100ul D-MEM without selection of antibiotics. After 24h, nine fivefold serial dilution of compounds, with 3 replicates at each dilution, were prepared in D-MEM and added to the appropriate wells, yielding concentrations of 125 to 0,00032 ug/ml in a final volume of 100 ul of D-MEM. Following 2 days of incubation, we determined the antiviral activity (EC50) by quantifying the luciferase with the Luciferase Bright Glo assay (Promega). Briefly, LucUbiNeo-ET cells were harvested with the addition of 100 ul of luciferase per well, and after 2 minutes of shaking, the light was read in a Luminometer Fluoroskan Ascent FL. Toxicity (CC50) was analysed in the Lunet/HuH7 cells by the addition of 10 ul of MTT (3-(4,5-dimethylthiazol-2-yl)-2,5-diphenyltetrazolium bromide) per well. After 4h of incubation at 37°C in a humidified atmosphere with 5% CO2, the amount of formazan produced was quantified spectrophotometrically at 550/620 nm [C. Pannecouque et al, Nature protocol 2008; 3 (3): 427-434]. The EC50 and CC50 values were calculated for each compound. These assays were done in duplicate and the results shown in Table 1 represent the mean value of these duplicates.

cytotoxicity assay (MTT) = assay type: cell-based; conditions: human, Lunet/HuH7 cells, 2 days of incubation, mean of duplicates; for CC50 at 2 days: Huh-7/Lunet cells (cured HCV replicon cells)
Text: as §1, §2

O=C1Nc2nc(NCc3ccccc3)[nH]c(=O)c2CC1c1c(Cl)cccc1Cl (stereo not shown) [Example 22, 2-(benzylamino)-6-(2,6-dichlorophenyl)-5,6-dihydropyrido [2,3-d]pyrimidine-4,7(3H,8H)-dione]
EC50 [1]: 5 to 22 µM | CC50 at 2 days (cytotoxicity assay (MTT)): ≥ 25 µM

CCCCCNc1nc(N)nc2[nH]c(=O)c(-c3c(Cl)cccc3Cl)cc12 [Example 28, 2-amino-6-(2,6-dichlorophenyl)-4-(pentylamino)pyrido[2,3-d]pyrimidine-7(8H)-one]
EC50 [1]: 1 to 5 µM | CC50 at 2 days (cytotoxicity assay (MTT)): 10 to 25 µM

O=C1Nc2nc(Nc3ccccc3)[nH]c(=O)c2CC1c1cccc2ccccc12 (stereo not shown) [Example 20, 6-(naphthalen-1-yl)-2-(phenylamino)-5,6-dihydropyrido[2,3-d]pyrimidine-4,7(3H,8H)-dione]
EC50 [1]: 5 to 22 µM | CC50 at 2 days (cytotoxicity assay (MTT)): 10 to 25 µM

Cn1c(=O)c(-c2c(Br)cccc2Br)cc2c(N)nc(Nc3ccccc3)nc21 [Example 49, 4-amino-6-(2,6-bromophenyl)-8-methyl-2-(phenylamino)pyrido[2,3-d]pyrimidine-7(8H)-one]
EC50 [1]: < 1 µM | CC50 at 2 days (cytotoxicity assay (MTT)): < 10 µM

COc1nc(N)nc2c1CC(c1c(Cl)cccc1Cl)C(=O)N2C (stereo not shown) [Example 45, 2-amino-6-(2,6-dichlorophenyl)-4-methoxy-8-methyl-5,6-dihydropyrido[2,3-d]pyrimidine-7(8H)-one]
EC50 [1]: 5 to 22 µM | CC50 at 2 days (cytotoxicity assay (MTT)): ≥ 25 µM

O=C1Nc2nc(Nc3ccccc3)[nH]c(=O)c2CC1c1ccccc1 (stereo not shown) [Example 18, 6-phenyl-2-(phenylamino)-5,6-dihydropyrido[2,3-d]pyrimidine-4,7(3H,8H)-dione]
EC50 [1]: 1 to 5 µM | CC50 at 2 days (cytotoxicity assay (MTT)): ≥ 25 µM

COCCn1c(=O)c(-c2c(Cl)cccc2Cl)cc2c(N)nc(Nc3ccccc3)nc21 [Example 58, 4-amino-6-(2,6-dichlorophenyl)-8-(2-methoxyethyl)-2-(phenylamino) pyrido[2,3-d]pyrimidine-7(8H)-one]
EC50 [1]: < 1 µM | CC50 at 2 days (cytotoxicity assay (MTT)): ≥ 25 µM

Cn1c(=O)c(-c2ccc(F)cc2)cc2c(N3CCCC3)nc(N)nc21 [Example 43]
EC50 [1]: 5 to 22 µM | CC50 at 48 h (cytotoxicity assay (MTT); huh-7/lunet cells): ≥ 25 µM
